The source made the active and inactive calls. No cut-off for these calls is given here.

Three compounds from ChEMBL document CHEMBL1208779, “Integrated ligand and structure based studies of flavonoids as fatty acid biosynthesis inhibitors of Plasmodium falciparum” (Bioorg Med Chem Lett, 2010) can be followed below.

The target in the assay is T1, Enoyl-acyl-carrier protein reductase (Plasmodium falciparum) (UniProt Q965D5).
T1 sequence (whole entry): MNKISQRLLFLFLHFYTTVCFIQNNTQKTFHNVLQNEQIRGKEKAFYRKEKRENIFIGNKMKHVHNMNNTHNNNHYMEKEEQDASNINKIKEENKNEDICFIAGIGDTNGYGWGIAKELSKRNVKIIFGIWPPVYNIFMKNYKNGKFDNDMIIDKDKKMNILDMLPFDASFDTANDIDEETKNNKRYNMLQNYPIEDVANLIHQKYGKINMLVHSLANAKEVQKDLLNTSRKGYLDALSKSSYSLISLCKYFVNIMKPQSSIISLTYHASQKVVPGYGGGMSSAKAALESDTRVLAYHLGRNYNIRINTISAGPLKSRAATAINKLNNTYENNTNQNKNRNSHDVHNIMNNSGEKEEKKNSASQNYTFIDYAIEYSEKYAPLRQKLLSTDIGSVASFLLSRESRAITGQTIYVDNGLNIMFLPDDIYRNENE
The experiment in a line: Inhibition of Plasmodium falciparum FabI at 100 uM.
Take `COc1ccc(-c2cc(=O)c3c(O)c(O)c(OC)cc3o2)cc1`: the inhibition entry was “inactive”.

`COc1cc2c(c(O)c1OC)C(=O)C[C@@H](c1ccc(O)cc1)O2`: the inhibition result is “inactive”.

Turning to `O=c1cc(-c2ccccc2)oc2ccc(O)cc12`, the inhibition entry is “inactive”.
